Values of other authors as cited in patent US20160335412A1, “SYSTEMS AND METHODS FOR PREDICTING AND ADJUSTING THE DOSAGE OF MEDICINES IN INDIVIDUAL PATIENTS” (priority 2013, published 2016).

Compound	'therapeutic range' of plasma drug concentrations (has been established, treatment of schizophrenia) [ng/mL]	'therapeutic range' of plasma concentrations (documented in the literature, lower limit = no response in most patients, upper limit = toxicity in most)
Cc1cc2c(s1)Nc1ccccc1N=C2N1CCN(C)CC1 [olanzapine]	20 to 80	
Cn1c(=O)c2[nH]cnc2n(C)c1=O [theophylline]		5-10 micrograms per ml plasma
